Results on six compounds are retold here after US20070276034A1, “Compounds, compositions and methods for the treatment of synucleinopathies” (priority 2002, published 2007).

Common to all, as to format: biochemical
Experiment [1] deals with T1, IAPP fibrils (Homo sapiens, UniProt P10997).
T1 construct: purchased Bachem Inc
T1 sequence (P10997 34-70 limits assumed): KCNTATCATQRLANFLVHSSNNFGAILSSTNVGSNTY
In words: Thioflavin T fluorometry - disruption of type 2 diabetes IAPP fibrils. The following applies: 25 μM pre-fibrillized IAPP, 37° C., 3 days; for inhibition: read-out: % Inhibition IAPP (result ± S.D.). The method, boiled down: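 Pre-fibrillized human IAPP (25 μM) incubated 3 days at 37 °C alone or with compound at IAPP:compound weight ratios of 1:1 to 1:0.001. Mixtures then mixed with Thioflavin T in phosphate buffer pH 6.8; fluorescence read at 485 nm (ex 444 nm) after blank subtraction.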

The target of another experiment is T2, Aβ 1-42 fibrils (Homo sapiens, UniProt P05067).
T2 construct: purchased Bachem Inc
The experiment is described as follows: Thioflavin T fluorometry - disruption of pre-formed Aβ 1-42 Alzheimer's fibrils. The following applies: 25 μM pre-fibrillized Aβ 1-42, 37° C., 3 days; for inhibition: read-out: % Inhibition Aβ (result ± S.D.). In a few lines:
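Pre-fibrillized Aβ1-42 (25 µM) incubated 3 days at 37 °C alone or with compound at Aβ:compound weight ratios 1:1 to 1:0.001. Remaining fibrils quantified by Thioflavin T fluorescence (ex 444/em 485 nm) in phosphate buffer pH 6.8, blank-subtracted for buffer or compound alone.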

Experiment [2] concerns the target T1, IAPP fibrils. The experiment is described as follows: Congo red binding assay with IAPP fibrils. To be noted: 3-day incubation. In a few lines: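 IAPP incubated 3 days with test compounds or EDTA at IAPP:compound weight ratios of 1:1, 1:0.1, 1:0.01 or 1:0.001, then vacuum-filtered (0.2 μm). Filter-retained IAPP stained with Congo red and washed; reduced staining versus IAPP without compound read as less aggregated, congophilic IAPP.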

Another experiment deals with T3, NAC fibrils (Homo sapiens, UniProt P37840).
T3 construct: NAC is a 35-amino acid fragment of α-synuclein; purchased Bachem Inc
In words: Thioflavin T fluorometry - disruption of Parkinson's disease NAC fibrils. To be noted: 3 days; for inhibition / % Inhibition NAC (result ± S.D.): 25 μM pre-fibrillized NAC, 37° C.; for inhibition: read-out: % Inhibition NAC (result ± S.D.); for disruption/disassembly of pre-formed NAC fibrils (in words): all concentrations tested (ratios 1:1 to 1:0.001). On the procedure:
In this assay, Thioflavin T binds specifically to NAC fibrils, and this binding produces a fluorescence enhancement at 485 nm that is directly proportional to the amount of NAC fibrils present. The higher the fluorescence, the greater the amount of NAC fibrils present (Naki et al, Lab. Invest. 65:104-110, 1991; Levine III, Protein Sci. 2:404-410, 1993; Amyloid: Int. J. Exp. Clin. Invest. 2:1-6, 1995).
In this study, 25 μM of pre-fibrillized NAC (Bachem Inc) was incubated at 37° C. for 3 days either alone or in the presence of dihydroxy synthetic analog compounds #1, 3, 23, 26, 52, 63, 66, 67, or EDTA (at NAC:test compound weight ratios of 1:1, 1:0.1, 1:0.01 or 1:0.001). Following 3-days of co-incubation, 50 βl of each incubation mixture was transferred into a 96-well microtiter plate containing 150 μl of distilled water and 50 μl of a Thioflavin T solution (i.e. 500 mM Thioflavin T in 250 mM phosphate buffer, pH 6.8). The fluorescence was read at 485 nm (444 nm excitation wavelength) using an ELISA plate fluorometer after subtraction with buffer alone or compound alone, as blank.

The mark [3] stands for this setting: IAPP:test compound wt/wt ratio 1:0.001.
Where [4] appears, read: IAPP:test compound wt/wt ratio 1:0.01.
[5] abbreviates: IAPP:test compound wt/wt ratio 1:0.1.
Where [6] appears, read: IAPP:test compound wt/wt ratio 1:1.
[7] abbreviates: Aβ:test compound wt/wt ratio 1:0.001.
Where [8] appears, read: Aβ:test compound wt/wt ratio 1:0.01.
Where [9] appears, read: Aβ:test compound wt/wt ratio 1:0.1.
[10] abbreviates: Aβ:test compound wt/wt ratio 1:1.
[11] abbreviates: NAC:test compound wt/wt ratio 1:0.001.
Where [12] appears, read: NAC:test compound wt/wt ratio 1:0.01.
Where [13] appears, read: NAC:test compound wt/wt ratio 1:0.1.
[14] abbreviates: NAC:test compound wt/wt ratio 1:1.

Read-outs that look alike come from different tables or passages of the source.

T2 sequence (P05067 672-713): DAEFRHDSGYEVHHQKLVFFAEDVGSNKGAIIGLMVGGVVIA

One may read the inhibition as the change of the read-out against control, counted positive when it falls. For the compound `O=C(N[C@@H]1CCCC[C@H]1NC(=O)c1ccc(O)c(O)c1)c1ccc(O)c(O)c1` (relative stereo) [Compound 26, N,N′-bis(3,4-dihydroxybenzoyl)-trans-1,2-diaminocyclohexane], the inhibition on IAPP fibrils [1] (setting [3]) was found to be 3.7 ± 4.67%; on IAPP fibrils [1] (setting [4]), 24.6 ± 6.77%; at IAPP fibrils [1] (setting [5]) it was 45.9 ± 17.7%; on IAPP fibrils [1] (setting [6]) it was 52.5 ± 2.44%; at Aβ 1-42 fibrils (setting [7]), 0%; on Aβ 1-42 fibrils (setting [8]) it was 0%. The inhibition on Aβ 1-42 fibrils (setting [9]) worked out at 11.7 ± 3.67%; at Aβ 1-42 fibrils (setting [10]), 37.8 ± 5.5%; on NAC fibrils (setting [11]), 0%; on NAC fibrils (setting [12]), 56.8 ± 4.6%; on NAC fibrils (setting [13]), 61.3 ± 6.52%; on NAC fibrils (setting [14]), 70.4 ± 3.22%. The “% Inhibition IAPP (result ± S.D.), Congo red binding” value at IAPP fibrils [2] (setting [3]) was determined as 10.8 ± 2.63%; at IAPP fibrils [2] (setting [4]), 5.3 ± 6.14%; at IAPP fibrils [2] (setting [5]) it was 7.5 ± 2.83%; at IAPP fibrils [2] (setting [6]) it was 0.0 ± 1.21%.
`O=C(c1ccc(O)c(O)c1)C(O)c1ccc(O)c(O)c1` (stereo not shown) [Compound 1, 3,4,3′,4′-tetrahydroxybenzoin]: the inhibition on IAPP fibrils [1] (setting [3]) came to 6.4 ± 4.4%; at IAPP fibrils [1] (setting [4]), 57.3 ± 0.16%; on IAPP fibrils [1] (setting [5]), 93 ± 1.27%; at IAPP fibrils [1] (setting [6]), 99 ± 0.11%; on Aβ 1-42 fibrils (setting [7]), 0%; on Aβ 1-42 fibrils (setting [8]), 19.2 ± 4.31%. The inhibition is 64.8 ± 1.98% at Aβ 1-42 fibrils (setting [9]); 97.3 ± 0.23% at Aβ 1-42 fibrils (setting [10]); 0% at NAC fibrils (setting [11]); 68.2 ± 2.55% on NAC fibrils (setting [12]); 99.5 ± 0.53% at NAC fibrils (setting [13]); 100 ± 1% at NAC fibrils (setting [14]). The “% Inhibition IAPP (result ± S.D.), Congo red binding” value at IAPP fibrils [2] (setting [4]) came to 18.6 ± 4.05%; at IAPP fibrils [2] (setting [5]) it was 10.6 ± 3.40%; on IAPP fibrils [2] (setting [6]), 40.7 ± 2.49%. Further, the “disruption/disassembly of pre-formed NAC fibrils (in words)” value (“disruption/disassembly” below) on NAC fibrils is listed as “dose-dependent disruption/disassembly”.
Consider `Oc1ccc(Cc2ccc(O)c(O)c2)cc1O` [Compound 3, 3,4,3′,4′-tetrahydroxydiphenylmethane], for which the “% Inhibition IAPP (result ± S.D.)” value at IAPP fibrils [1] (setting [3]) was determined as 30.7 ± 6.71%; at IAPP fibrils [1] (setting [4]), 79.9±1.47%; at IAPP fibrils [1] (setting [5]), 97.7±0.19%; at IAPP fibrils [1] (setting [6]), 100 ± 0.20%. In addition, the “% Inhibition Aβ (result ± S.D.)” value was found to be 5.5 ± 1.99% at Aβ 1-42 fibrils (setting [7]), 53.1 ± 1.67% on Aβ 1-42 fibrils (setting [8]), 57.8±6.36% on Aβ 1-42 fibrils (setting [9]) and 99.5 ± 0.10% at Aβ 1-42 fibrils (setting [10]). The “% Inhibition IAPP (result ± S.D.), Congo red binding” value on IAPP fibrils [2] (setting [3]) was determined as 11.1 ± 5.26%; at IAPP fibrils [2] (setting [4]), 16.3 ± 1.13%; on IAPP fibrils [2] (setting [5]), 37.9±3.10%; on IAPP fibrils [2] (setting [6]), 55.5±2.68%. Also, the “% Inhibition NAC (result ± S.D.)” value at NAC fibrils (setting [11]) was 67.3 ± 6.37%; on NAC fibrils (setting [12]) it was 93.9±0.77%; on NAC fibrils (setting [13]), 91.0±1.99%; on NAC fibrils (setting [14]) it was 98.0 ± 1.78%. Besides, the “disruption/disassembly” value at NAC fibrils is reported as “dose-dependent disruption/disassembly”.
With `O=C(c1ccc(O)c(O)c1)N1CCN(C(=O)c2ccc(O)c(O)c2)CC1` [Compound 23, 1,4-bis(3,4-dihydroxybenzoyl)piperazine], the inhibition stood at 27.3 ± 45.4% on IAPP fibrils [1] (setting [3]); 44.3 ± 32.5% on IAPP fibrils [1] (setting [4]); 67.2 ± 18.4% at IAPP fibrils [1] (setting [5]); 85.2 ± 0.55% at IAPP fibrils [1] (setting [6]); 0% at Aβ 1-42 fibrils (setting [7]); 16.5 ± 4.02% on Aβ 1-42 fibrils (setting [8]). In addition, the inhibition was 26.2 ± 4.37% at Aβ 1-42 fibrils (setting [9]); 46.7 ± 4.62% at Aβ 1-42 fibrils (setting [10]); 0% on NAC fibrils (setting [11]); 35.6 ± 9.73% on NAC fibrils (setting [12]); 58 ± 8.43% on NAC fibrils (setting [14]). The “% Inhibition IAPP (result ± S.D.), Congo red binding” value at IAPP fibrils [2] (setting [3]) amounted to 5.1 ± 2.45%; at IAPP fibrils [2] (setting [4]), 9.3 ± 1.40%; at IAPP fibrils [2] (setting [5]) it was 4.5 ± 4.12%; on IAPP fibrils [2] (setting [6]) it was 5.5 ± 2.33%.
`O=C(Nc1ccc(O)c(O)c1)C(=O)Nc1ccc(O)c(O)c1` [Compound 63, oxalic acid bis(3,4-dihydroxyanilide)]: the inhibition on IAPP fibrils [1] (setting [3]) was 19 ± 0.3%; at IAPP fibrils [1] (setting [4]), 56.2 ± 8.77%; on IAPP fibrils [1] (setting [5]) it was 84.2 ± 1.16%; on IAPP fibrils [1] (setting [6]), 94.9 ± 0.65%; on Aβ 1-42 fibrils (setting [7]) it was 1.6 ± 9.47%; on Aβ 1-42 fibrils (setting [8]), 57.5 ± 10.6%. Further, the inhibition came out at 23.6 ± 25.8% at Aβ 1-42 fibrils (setting [9]); 85.3 ± 0.91% at Aβ 1-42 fibrils (setting [10]); 17.3 ± 12.6% at NAC fibrils (setting [11]); 33 ± 1.69% at NAC fibrils (setting [12]); 45.6 ± 31% at NAC fibrils (setting [14]). In addition, the “% Inhibition IAPP (result ± S.D.), Congo red binding” value on IAPP fibrils [2] (setting [3]) was found to be 0.0 ± 2.25%; at IAPP fibrils [2] (setting [4]), 11.7 ± 2.26%; on IAPP fibrils [2] (setting [5]) it was 4.5 ± 1.62%; on IAPP fibrils [2] (setting [6]), 15.4 ± 1.34%. For the same compound, the “disruption/disassembly” value on NAC fibrils is “dose-dependent disruption/disassembly”.
With `O=C(CCC(=O)NCc1ccc(O)c(O)c1)NCc1ccc(O)c(O)c1` [Compound 67, succinic acid bis(3,4-dihydroxybenzylamide)], the inhibition at IAPP fibrils [1] (setting [3]) stood at 16.1 ± 12.4%; on IAPP fibrils [1] (setting [4]) it was 34.8 ± 1.87%; at IAPP fibrils [1] (setting [5]), 81.4 ± 6.96%; on IAPP fibrils [1] (setting [6]) it was 98.6 ± 0.22%; on Aβ 1-42 fibrils (setting [7]) it was 13.7 ± 6.05%; at Aβ 1-42 fibrils (setting [8]), 34 ± 14.1%. The inhibition at Aβ 1-42 fibrils (setting [9]) was found to be 50.9 ± 8.32%; on Aβ 1-42 fibrils (setting [10]), 98.3 ± 2.19%; on NAC fibrils (setting [11]), 11.9 ± 16%; on NAC fibrils (setting [12]), 30.6 ± 5.75%; on NAC fibrils (setting [13]), 50 ± 7.03%; on NAC fibrils (setting [14]), 97.4 ± 1.19%. In addition, the “% Inhibition IAPP (result ± S.D.), Congo red binding” value at IAPP fibrils [2] (setting [3]) worked out at 0.0 ± 3.45%; at IAPP fibrils [2] (setting [4]), 10.6 ± 1.29%; on IAPP fibrils [2] (setting [5]), 5.5 ± 2.52%; at IAPP fibrils [2] (setting [6]), 26.3 ± 2.76%. Besides, the “disruption/disassembly” value on NAC fibrils was “dose-dependent disruption/disassembly”.
